Calls of active or inactive are those of the source. The calls are words filed in the database; no cut-off is given here.

This note sets out measurements from ChEMBL document CHEMBL4118222, “Synthesis of C-ring-modified blebbistatin derivatives and evaluation of their myosin II ATPase inhibitory potency” (Bioorg Med Chem Lett, 2018).

Test [1] is filed under the species Oryctolagus cuniculus. The test can be described thus: Inhibition of rabbit skeletal muscle myosin 2 ATPase in presence of F-actin at 100 uM after 1 hr.
The nature of test [2]: Inhibition of rabbit skeletal muscle myosin 2 ATPase in presence of F-actin after 1 hr. On the set-up: species or system Oryctolagus cuniculus.

Regarding `Cc1ccc2c(c1)C(=O)[C@]1(O)C[C@@H](CO)N(c3ccccc3)C1=N2` (racemic), the inhibition entry in test [1] is “inactive”.
With `Cc1ccc2c(c1)C(=O)[C@]1(O)CCN(c3ccccc3)C1=N2`, the IC50 in test [2] was determined as 0.95 µM.
In the case of `C=CCOCC1CC2(O)C(=O)c3cc(C)ccc3N=C2N1c1ccccc1` (mixture of isomers), the inhibition entry in test [1] is “inactive”.
For `Cc1ccc2c(c1)C(=O)[C@]1(O)C[C@H](CO)N(c3ccccc3)C1=N2` (racemic), the IC50 in test [2] was determined as 75 µM.
